Results from patent publication US20260207618A1, “PYRIMIDINE CARBOXAMIDE COMPOUNDS” (Acrivon Therapeutics, Inc., priority 2022, published 2026).

How the values were obtained:
[1] = target: T1, recombinant human Wee1A kinase (Homo sapiens, UniProt P30291); assay: LanthaScreen Europium (Eu) Kinase Binding Assay, Wee1A kinase (TR-FRET tracer displacement); conditions: 30 nM tracer 178, 5 nM Wee1A kinase, 60 minutes at room temperature
T1 construct: full length Wee1A kinase was expressed by baculovirus in insect cells; purchased Invitrogen PV3817; host or cells: insect cells (baculovirus)

[2] = system: Cdk1 phosphorylated on tyrosine 15; assay: pCDK1 Y15 AlphaLISA target engagement assay in ACHN cells; format: cell-based; conditions: Homo sapiens, treated for 4 h, 7 to 5000 nM, read-out: TE Weel (ALISA): AlphaLISA CDK1 Tyr15 Phosphorylation EC50
Procedure: (§1) ACHN renal cell carcinoma cell line (ATCC) was cultured in Minimum Essential Medium Eagle supplemented with 10% fetal calf serum (Sigma), 1% Penicillin-Streptomycin and 10 mM HEPES buffer (HyClone). Cell cultures were kept in a humidified incubator at 37° C. and 5% CO2. Cells were routinely tested for Mycoplasma contamination.
For target engagement assessment, quantification of Cdk1 phosphorylated on tyrosine 15 was detected using pCDK1 Y^15 AlphaLISA assay (Perkin Elmer). ACHN cells were seeded into tissue culture treated 96-well plates (VWR) to a density of 20,000 cells per well. 24 h post seeding cells were treated for 4 h with compounds at concentrations ranging from 7 to 5000 nM. Cells were washed with PBS and lysed in 50 μl alphaLISA lysis buffer before freezing at −80° C. 10 μl of the lysate was transferred to 384 well plates and incubated with alphaLISA donor and acceptor beads according to the manufacturer's instructions. Dose response curves and EC50 values were calculated and visualized using GraphPad Prism version 9.

[3] = system: Cdk1 phosphorylated on tyrosine 15; assay: High-content imaging of pCdk1 Y15 by immunofluorescence in ACHN cells; format: cell-based; conditions: Homo sapiens, high-content imaging (IF), 4 h, 7 to 5000 nM, read-out: CDK1 Tyr15 Phosphorylation EC50 (IC50)
Method in brief: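 ACHN cells were treated with compounds at 7–5000 nM for 4 h, then fixed, permeabilised and immunostained for pCDK1 Y15, with DAPI as nuclear counterstain. Automated imaging gave the percentage of cells with nuclear pCDK1 Y15 positivity relative to DMSO control. EC50 values came from dose-response curves.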

ACHN cells = assay: Cell Titer Glo viability assay in ACHN cells; format: cell-based; conditions: Homo sapiens, 144 h, 0.17 to 10,000 nM
Procedure: as §1
ACHN cells were seeded at a density of 400 cells per well in tissue culture treated 384 well plates (Corning Costar). After overnight incubation, cells were treated with drugs at concentrations ranging from 0.17 to 10,000 nM. Viability compared to untreated control was assessed at 144 h using Cell Titer Glo assay 2.0 (Promega).

T1 sequence (P30291 whole entry): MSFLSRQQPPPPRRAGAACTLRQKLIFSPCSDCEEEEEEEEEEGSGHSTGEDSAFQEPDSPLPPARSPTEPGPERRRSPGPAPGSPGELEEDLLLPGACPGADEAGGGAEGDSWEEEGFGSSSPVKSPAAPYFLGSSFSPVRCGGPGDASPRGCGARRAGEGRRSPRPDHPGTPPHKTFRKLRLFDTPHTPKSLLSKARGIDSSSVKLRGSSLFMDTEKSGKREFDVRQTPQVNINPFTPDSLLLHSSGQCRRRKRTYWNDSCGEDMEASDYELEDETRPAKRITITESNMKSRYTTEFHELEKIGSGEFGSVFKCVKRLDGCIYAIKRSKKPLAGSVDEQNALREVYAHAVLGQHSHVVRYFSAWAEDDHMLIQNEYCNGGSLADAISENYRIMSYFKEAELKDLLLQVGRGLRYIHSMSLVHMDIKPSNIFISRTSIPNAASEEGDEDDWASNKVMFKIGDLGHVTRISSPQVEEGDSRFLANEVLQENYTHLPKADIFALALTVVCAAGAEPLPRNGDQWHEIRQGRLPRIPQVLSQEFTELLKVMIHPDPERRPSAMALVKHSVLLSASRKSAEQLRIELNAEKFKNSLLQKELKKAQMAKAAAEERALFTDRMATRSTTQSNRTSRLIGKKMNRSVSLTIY

IC50 [1] | EC50 [2] | EC50 [3] | EC50 (ACHN cells) | SMILES
≤ 10 nM | > 2500 nM | 100 to 500 nM | 250 to 1000 nM | COc1nc(Nc2ccc(OC3CCNCC3)cc2)ncc1C(=O)Nc1c(Cl)cccc1Cl [Compound 179]
≤ 10 nM | 500 to 1000 nM | 100 to 500 nM | 250 to 1000 nM | COc1nc(Nc2ccc(OC3CCNCC3)c(C)c2)ncc1C(=O)Nc1c(Cl)cccc1Cl [Compound 180]
10 to 100 nM | > 2500 nM | 100 to 500 nM | 1000 to 5000 nM | COc1nc(Nc2cnn(C)c2)ncc1C(=O)Nc1c(Cl)cccc1Cl [Compound 182]
